# In BigSolDB 2.1:
structure (smiles),measurement,setting,value
O=C(/C=C/C=C/c1ccc2c(c1)OCO2)N1CCCCC1,solubility (mole fraction),"in DMSO, 298.2 K",0.0287
same,solubility (mole fraction),"in DMSO, 303.2 K",0.0303
same,solubility (mole fraction),"in DMSO, 308.2 K",0.0321
same,solubility (mole fraction),"in DMSO, 313.2 K",0.0339
same,solubility (mole fraction),"in DMSO, 318.2 K",0.0359
same,solubility (mole fraction),"in PEG-400, 298.2 K",0.0518
same,solubility (mole fraction),"in PEG-400, 303.2 K",0.0584
same,solubility (mole fraction),"in PEG-400, 308.2 K",0.0652
same,solubility (mole fraction),"in PEG-400, 313.2 K",0.0718
same,solubility (mole fraction),"in PEG-400, 318.2 K",0.0788
same,solubility (mole fraction),"in ethanol, 298.2 K",0.00899
same,solubility (mole fraction),"in ethanol, 303.2 K",0.01
same,solubility (mole fraction),"in ethanol, 308.2 K",0.011
same,solubility (mole fraction),"in ethanol, 313.2 K",0.012
same,solubility (mole fraction),"in ethanol, 318.2 K",0.0134
same,solubility (mole fraction),"in ethyl acetate, 298.2 K",0.00985
same,solubility (mole fraction),"in ethyl acetate, 303.2 K",0.011
same,solubility (mole fraction),"in ethyl acetate, 308.2 K",0.0123
same,solubility (mole fraction),"in ethyl acetate, 313.2 K",0.0137
same,solubility (mole fraction),"in ethyl acetate, 318.2 K",0.0154
same,solubility (mole fraction),"in ethylene glycol, 298.2 K",0.00386
same,solubility (mole fraction),"in ethylene glycol, 303.2 K",0.00444
same,solubility (mole fraction),"in ethylene glycol, 308.2 K",0.00515
same,solubility (mole fraction),"in ethylene glycol, 313.2 K",0.00597
same,solubility (mole fraction),"in ethylene glycol, 318.2 K",0.0067
same,solubility (mole fraction),"in isopropanol, 298.2 K",0.0123
same,solubility (mole fraction),"in isopropanol, 303.2 K",0.0136
same,solubility (mole fraction),"in isopropanol, 308.2 K",0.0149
same,solubility (mole fraction),"in isopropanol, 313.2 K",0.0164
same,solubility (mole fraction),"in isopropanol, 318.2 K",0.0182
same,solubility (mole fraction),"in methanol, 298.2 K",0.00527
same,solubility (mole fraction),"in methanol, 303.2 K",0.00584
same,solubility (mole fraction),"in methanol, 308.2 K",0.00648
same,solubility (mole fraction),"in methanol, 313.2 K",0.00719
same,solubility (mole fraction),"in methanol, 318.2 K",0.00791
same,solubility (mole fraction),"in n-butanol, 298.2 K",0.0156
same,solubility (mole fraction),"in n-butanol, 303.2 K",0.0169
same,solubility (mole fraction),"in n-butanol, 308.2 K",0.0183
same,solubility (mole fraction),"in n-butanol, 313.2 K",0.0201
same,solubility (mole fraction),"in n-butanol, 318.2 K",0.022
same,solubility (mole fraction),"in propylene glycol, 298.2 K",0.01
same,solubility (mole fraction),"in propylene glycol, 303.2 K",0.0111
same,solubility (mole fraction),"in propylene glycol, 308.2 K",0.0122
same,solubility (mole fraction),"in propylene glycol, 313.2 K",0.0134
same,solubility (mole fraction),"in propylene glycol, 318.2 K",0.0147
same,solubility (mole fraction),"in sec-butanol, 298.2 K",0.0158
same,solubility (mole fraction),"in sec-butanol, 303.2 K",0.017
same,solubility (mole fraction),"in sec-butanol, 308.2 K",0.0187
same,solubility (mole fraction),"in sec-butanol, 313.2 K",0.0206
same,solubility (mole fraction),"in sec-butanol, 318.2 K",0.0225
same,solubility (mole fraction),"in transcutol, 298.2 K",0.0797
same,solubility (mole fraction),"in transcutol, 303.2 K",0.0826
same,solubility (mole fraction),"in transcutol, 308.2 K",0.0852
same,solubility (mole fraction),"in transcutol, 313.2 K",0.0883
same,solubility (mole fraction),"in transcutol, 318.2 K",0.0917
same,solubility (mole fraction),"in water, 298.2 K",1.07e-05
same,solubility (mole fraction),"in water, 303.2 K",1.18e-05
same,solubility (mole fraction),"in water, 308.2 K",1.29e-05
same,solubility (mole fraction),"in water, 313.2 K",1.41e-05
same,solubility (mole fraction),"in water, 318.2 K",1.52e-05
